Source: publication PMC11202002, “P18: Novel Anticancer Peptide from Induced Tumor-Suppressing Cells Targeting Breast Cancer and Bone Metastasis” (Cancers, 2024)

Experiments:
[1] = tested on: peripheral blood mononuclear cells; format: cell-based, human
Description: (§1) Using 96-well plates with approximately 2000 cells per well, an MTT-based metabolic activity assay was performed. The cells were treated with agents and incubated for two days. On the fourth day, they were stained with 0.5 mg/mL thiazolyl blue tetrazolium bromide (M5655, Sigma). The optical density, used to assess metabolic activity, was measured at 562 nm. For the EdU-based proliferation activity assay, the cells were seeded in 96-well plates at about 1000 cells per well. A fluorescence-based cell proliferation kit (Click-iT™, EdU Alexa Fluor™ 488 Imaging Kit; Thermo Fisher, Waltham, MA, USA) was used according to the manufacturer’s instructions.

[2] = tested on: Jurkat lymphocytes; format: cell-based
Description: as §1

[3] = tested on: MC3T3 osteoblasts; format: cell-based
Description: as §1

[4] = tested on: MDA-MB-231 cells; assay: Scratch-based motility assay; format: cell-based, human; settings: 25 µg/mL, 24 h
Description: (§2) To evaluate the two-dimensional motility of cancer cells, a wound-healing scratch assay was utilized, and the change in the scratch area was determined. On day 1, ~3 × 10^5 cells were seeded in 12-well plates, and, on day 2, a scratch was made on the cell layer, with the tip of a plastic pipette. Using a light microscope (40×), cell-free zones were imaged after 0 h and 24 h, and the alteration in their areas was quantified by Image J (Version 1.54 f).

[5] = tested on: MDA-MB-436 cells; assay: Scratch-based motility assay; format: cell-based, human; settings: 25 µg/mL, 24 h
Description: as §2

[6] = tested on: human triple-negative breast cancer tissue; assay: Ex vivo cancer tissue assay; format: cell-based; settings: 25 µg/mL of P18; four days (96 h); n = 6
Description: The usage of human triple-negative breast cancer tissue was approved by the Indiana University Institutional Review Board (1911155674), and the tissues were received from the Indiana University Simon Comprehensive Cancer Center Tissue Procurement Core. Freshly isolated breast cancer tissue (~10 mg) was manually fragmented with a scalpel into small pieces (0.5~0.8 mm in length), which were grown in DMEM with 10% FBS and antibiotics for a day. […] The culture medium, consisting of these agents, was applied for 4 days, and a change in the fragment size was determined.

[7] = tested on: Col1, ALP, OCN; assay: Western blot analysis of osteoblast development proteins; format: cell-based; settings: Suppl. Figure S1d
Description: (§3) Cells were lysed using a RIPA lysis buffer (sc-24948, Santa Cruz Biotech, Dallas, TX, USA) containing protease inhibitors (PIA32963, Thermo Fisher) and phosphatase inhibitors (2006643, Cal-biochem, Billerica, MA, USA). The proteins were separated on 10–15% SDS gels (Bio-Rad Laboratories, Hercules, CA, USA) and transferred to a polyvinylidene difluoride membrane (IPVH00010, Millipore, Billerica, MA, USA). The membrane was incubated with primary antibodies, followed by incubation with secondary antibodies (7074S/7076S, Cell Signaling, Danvers, MA, USA). The antibodies used included those against Snail, p-Src, Src, cleaved caspase 3, caspase 3, RANKL, Cdc42, Col1 and RhoA (Cell Signaling), ALP (Santa Cruz Biotech), OCN (Abcam, Boston, MA, USA), with β-actin (Sigma) as a control. The protein levels were detected using SuperSignal West Femto Maximum Sensitivity Substrate (PI34096, Thermo Fisher) and a luminescent image analyzer (LAS-3000, Fuji Film, Tokyo, Japan).

[8] = tested on: femurs inoculated with 4T1.2 mammary tumor cells; assay: Bone microenvironment assay (ex vivo bone culture, Western blot); format: cell-based, mouse; settings: 25 μg/mL P18 daily; 2 weeks
Description: as §3
Femora were collected from […] female mice (~10 weeks old), and the surrounding connective tissues were removed. The femora were cut in half at the mid-diaphysis, and a hole was created at the end of the sample using a 25-gauge needle. 4T1.2 mammary tumor cells (2.5 × 10^5 cells) were resuspended in 10 μL of culture medium and injected into the bone marrow cavity through the open end of the diaphysis. […]

## TDYMVGSYGPR [P18]
[1]
  MTT viability: did not exhibit any significant effects
[2]
  MTT viability: did not exhibit any significant effects
[3]
  MTT viability: did not exhibit any significant effects
[4]
  scratch-based motility: effectively reduced
[5]
  scratch-based mobility: inhibited
[6]
  size of ex vivo breast tissue fragments: significant decrease in the size
[7]
  expression of type I collagen (Col1), alkaline phosphatase (ALP), and osteocalcin (OCN): upregulated
[8]
  levels of c-Cas 3, Cdc42, and alkaline phosphatase (ALP): upregulation
